The results in this text go back to PMC4115637 (Pharmacology Research & Perspectives, 2014).

Common to all, as to assay type: cell-based
One test addresses human TRPA1 (Homo sapiens, UniProt O75762). In words: Calcium flux in HEK-293 cells overexpressing TRPA1. The note with it: concentrations up to 1 mmol/L. (Calcium flux is commonly read through the fluorescence of an indicator in the cells.)
Another test deals with T1, TRPV3 in HaCaT cells (Homo sapiens, UniProt Q8NET8).
T1 sequence (Q8NET8 1-790): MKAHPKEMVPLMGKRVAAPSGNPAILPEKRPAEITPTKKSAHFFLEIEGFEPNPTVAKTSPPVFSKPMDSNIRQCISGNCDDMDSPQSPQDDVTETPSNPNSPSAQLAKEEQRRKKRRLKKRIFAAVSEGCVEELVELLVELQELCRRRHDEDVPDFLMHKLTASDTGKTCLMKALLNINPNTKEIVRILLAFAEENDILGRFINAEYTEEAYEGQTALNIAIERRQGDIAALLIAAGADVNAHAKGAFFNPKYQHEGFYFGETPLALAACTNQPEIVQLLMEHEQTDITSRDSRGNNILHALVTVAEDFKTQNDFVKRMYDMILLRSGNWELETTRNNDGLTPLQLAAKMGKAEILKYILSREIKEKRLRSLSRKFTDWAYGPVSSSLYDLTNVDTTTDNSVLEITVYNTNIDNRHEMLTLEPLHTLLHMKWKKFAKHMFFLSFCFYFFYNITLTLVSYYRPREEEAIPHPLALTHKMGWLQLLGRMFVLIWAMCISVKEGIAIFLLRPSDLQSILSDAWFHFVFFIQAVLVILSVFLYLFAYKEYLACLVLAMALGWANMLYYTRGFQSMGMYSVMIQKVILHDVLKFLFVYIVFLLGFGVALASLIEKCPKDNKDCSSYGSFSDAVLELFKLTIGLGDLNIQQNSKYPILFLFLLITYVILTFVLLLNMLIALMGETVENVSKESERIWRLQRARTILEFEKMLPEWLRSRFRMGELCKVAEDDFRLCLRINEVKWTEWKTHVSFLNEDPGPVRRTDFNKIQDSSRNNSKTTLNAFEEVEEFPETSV
In words: Calcium flux in HaCaT cells.

The next test has as its target human TRPV4 (Homo sapiens, UniProt Q9HBA0). Put plainly: Calcium flux in HEK-293 cells overexpressing TRPV4. The settings on record: concentrations up to 1 mmol/L.
The target in a further test is T2, human TRPV2 (Homo sapiens, UniProt Q9Y5S1).
T2 sequence (Q9Y5S1 1-764): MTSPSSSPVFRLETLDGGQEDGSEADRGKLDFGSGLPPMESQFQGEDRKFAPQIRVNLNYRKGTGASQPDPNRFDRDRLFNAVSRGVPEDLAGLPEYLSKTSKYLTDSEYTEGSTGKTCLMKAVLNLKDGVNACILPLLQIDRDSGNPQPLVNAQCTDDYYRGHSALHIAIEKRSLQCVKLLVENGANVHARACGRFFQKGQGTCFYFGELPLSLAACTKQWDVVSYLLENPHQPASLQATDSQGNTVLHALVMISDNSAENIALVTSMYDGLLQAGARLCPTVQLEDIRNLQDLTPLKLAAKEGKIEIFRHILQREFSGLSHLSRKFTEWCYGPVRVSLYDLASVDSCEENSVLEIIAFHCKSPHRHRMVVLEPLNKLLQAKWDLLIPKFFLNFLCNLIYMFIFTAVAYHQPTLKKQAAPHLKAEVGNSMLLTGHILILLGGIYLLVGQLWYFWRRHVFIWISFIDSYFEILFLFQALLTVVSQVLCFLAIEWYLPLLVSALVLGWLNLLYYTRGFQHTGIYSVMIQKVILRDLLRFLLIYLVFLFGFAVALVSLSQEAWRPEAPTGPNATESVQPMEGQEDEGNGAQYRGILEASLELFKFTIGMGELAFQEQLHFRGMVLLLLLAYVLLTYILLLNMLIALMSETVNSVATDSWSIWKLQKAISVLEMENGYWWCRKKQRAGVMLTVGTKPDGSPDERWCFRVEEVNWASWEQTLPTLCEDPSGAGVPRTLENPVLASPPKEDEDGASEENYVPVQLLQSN
In words: Calcium flux in HEK-293 cells overexpressing TRPV2. The settings on record: concentrations up to 1 mmol/L.

In a further test the target is human TRPV1 (Homo sapiens, UniProt Q8NER1). In words: Calcium flux in HEK-293 cells overexpressing TRPV1. The note with it: concentrations up to 1 mmol/L.
The next test has as its target T3, TRPV3-H426N (Homo sapiens, UniProt Q8NET8, H426N).
T3 sequence (Q8NET8 1-790 H426N): T1 sequence (Q8NET8 1-790) with H426N
In words: Calcium flux in HEK-293 cells transiently transfected with TRPV3-H426N.

Substitutions are numbered along the chain they refer to. pEC50: −log10 of the molar value.

Chain of human TRPV4 (Q9HBA0 whole entry): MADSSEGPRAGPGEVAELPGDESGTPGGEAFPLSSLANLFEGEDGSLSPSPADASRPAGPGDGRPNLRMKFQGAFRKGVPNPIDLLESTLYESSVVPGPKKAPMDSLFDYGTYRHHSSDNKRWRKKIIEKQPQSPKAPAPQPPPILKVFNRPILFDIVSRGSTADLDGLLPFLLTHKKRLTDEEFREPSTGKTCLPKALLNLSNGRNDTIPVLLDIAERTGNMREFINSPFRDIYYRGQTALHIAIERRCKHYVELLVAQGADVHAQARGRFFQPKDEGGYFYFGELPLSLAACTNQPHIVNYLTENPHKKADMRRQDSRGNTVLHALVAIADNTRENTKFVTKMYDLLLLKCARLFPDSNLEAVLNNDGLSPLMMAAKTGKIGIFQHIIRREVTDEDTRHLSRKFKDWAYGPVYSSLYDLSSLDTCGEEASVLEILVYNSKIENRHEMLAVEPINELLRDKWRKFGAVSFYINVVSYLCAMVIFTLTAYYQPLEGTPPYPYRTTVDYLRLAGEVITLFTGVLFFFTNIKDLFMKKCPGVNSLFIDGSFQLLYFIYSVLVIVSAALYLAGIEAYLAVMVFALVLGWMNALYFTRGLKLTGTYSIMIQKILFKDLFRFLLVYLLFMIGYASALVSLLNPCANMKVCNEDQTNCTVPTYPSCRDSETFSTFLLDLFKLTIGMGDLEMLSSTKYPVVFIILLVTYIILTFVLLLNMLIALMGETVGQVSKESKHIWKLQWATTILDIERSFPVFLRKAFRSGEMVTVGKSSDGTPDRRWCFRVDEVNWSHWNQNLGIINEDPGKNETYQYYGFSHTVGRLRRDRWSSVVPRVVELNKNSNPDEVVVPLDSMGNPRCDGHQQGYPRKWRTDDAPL
Chain of human TRPA1 (O75762 whole entry): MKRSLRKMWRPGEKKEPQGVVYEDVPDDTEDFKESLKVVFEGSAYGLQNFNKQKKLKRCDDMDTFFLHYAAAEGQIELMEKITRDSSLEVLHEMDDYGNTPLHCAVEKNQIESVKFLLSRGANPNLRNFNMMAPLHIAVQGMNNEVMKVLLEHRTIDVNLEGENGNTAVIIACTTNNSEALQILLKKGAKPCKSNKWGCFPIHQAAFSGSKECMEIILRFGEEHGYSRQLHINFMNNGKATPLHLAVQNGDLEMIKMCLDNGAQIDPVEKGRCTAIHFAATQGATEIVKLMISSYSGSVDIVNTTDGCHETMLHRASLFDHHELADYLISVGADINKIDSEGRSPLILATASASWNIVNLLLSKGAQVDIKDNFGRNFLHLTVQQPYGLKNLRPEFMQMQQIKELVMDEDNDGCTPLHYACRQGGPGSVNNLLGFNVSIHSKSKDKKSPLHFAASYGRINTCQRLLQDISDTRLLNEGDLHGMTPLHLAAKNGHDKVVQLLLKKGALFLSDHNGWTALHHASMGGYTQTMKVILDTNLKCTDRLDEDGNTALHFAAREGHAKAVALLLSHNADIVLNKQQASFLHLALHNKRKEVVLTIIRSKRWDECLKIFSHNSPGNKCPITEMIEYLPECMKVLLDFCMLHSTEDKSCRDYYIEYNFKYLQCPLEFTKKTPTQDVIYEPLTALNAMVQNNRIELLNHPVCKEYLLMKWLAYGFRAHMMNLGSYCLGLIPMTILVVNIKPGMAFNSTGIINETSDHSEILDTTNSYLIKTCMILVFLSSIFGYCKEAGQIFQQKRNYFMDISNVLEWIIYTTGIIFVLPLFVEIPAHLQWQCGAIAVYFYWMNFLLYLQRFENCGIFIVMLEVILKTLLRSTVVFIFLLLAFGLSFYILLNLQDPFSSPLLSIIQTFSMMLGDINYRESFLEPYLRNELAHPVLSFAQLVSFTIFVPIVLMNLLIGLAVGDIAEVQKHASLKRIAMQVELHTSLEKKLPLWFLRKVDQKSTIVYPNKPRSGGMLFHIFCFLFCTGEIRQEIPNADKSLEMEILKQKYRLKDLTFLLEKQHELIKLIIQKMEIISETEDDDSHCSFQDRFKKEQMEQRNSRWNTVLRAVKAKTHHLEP
Chain of human TRPV1 (Q8NER1 whole entry): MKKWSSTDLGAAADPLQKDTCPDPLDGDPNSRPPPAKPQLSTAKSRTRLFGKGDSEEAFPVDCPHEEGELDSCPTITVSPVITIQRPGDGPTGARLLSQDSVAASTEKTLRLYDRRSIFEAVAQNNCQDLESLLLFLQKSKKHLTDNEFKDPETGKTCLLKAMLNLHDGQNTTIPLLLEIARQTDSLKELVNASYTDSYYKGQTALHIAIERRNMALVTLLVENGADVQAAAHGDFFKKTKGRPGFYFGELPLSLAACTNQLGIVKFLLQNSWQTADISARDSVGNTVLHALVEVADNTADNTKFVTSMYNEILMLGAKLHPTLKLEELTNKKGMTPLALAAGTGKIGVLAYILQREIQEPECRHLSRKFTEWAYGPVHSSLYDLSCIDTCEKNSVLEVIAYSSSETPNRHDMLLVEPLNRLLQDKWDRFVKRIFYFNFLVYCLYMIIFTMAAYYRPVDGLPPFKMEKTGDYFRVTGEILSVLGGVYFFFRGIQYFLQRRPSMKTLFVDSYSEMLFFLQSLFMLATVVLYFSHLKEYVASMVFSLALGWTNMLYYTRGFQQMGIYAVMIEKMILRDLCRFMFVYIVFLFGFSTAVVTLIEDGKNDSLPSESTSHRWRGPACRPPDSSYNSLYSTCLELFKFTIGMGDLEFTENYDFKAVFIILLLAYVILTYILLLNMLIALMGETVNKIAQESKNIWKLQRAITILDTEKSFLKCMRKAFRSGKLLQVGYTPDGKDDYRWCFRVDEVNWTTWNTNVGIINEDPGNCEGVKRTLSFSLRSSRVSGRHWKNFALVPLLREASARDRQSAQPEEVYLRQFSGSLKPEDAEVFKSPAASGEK

As for `CCN(CC)CCOC(=O)C(c1ccccc1)C1CCCCC1` (centres unmarked) [drofenine], the “activation of TRPA1” value at human TRPA1 was “not observed”. The pEC50 (commonly the EC50 on a negative log10 scale, so that one unit is a factor of ten) on TRPV3 in HaCaT cells is 3.22. Moreover, the “maximum change in fluorescence relative to ionomycin” value at TRPV3 in HaCaT cells (HaCaT cells) is listed as ~80%. Moreover, the “activation of TRPV4” value on human TRPV4 is given as “not observed”. Moreover, the “activation of TRPV2” value on human TRPV2 was “not observed”. The “activation of TRPV1” value on human TRPV1 is “not observed”. For the same compound, the “calcium flux in TRPV3-H426N relative to TRPV3-WT” value on TRPV3-H426N (agonist 100 μmol/L) is reported as “reduced activation relative to TRPV3-WT”; at TRPV3-H426N (agonist 200 μmol/L) it was “did not reduce TRPV3 activation”.
